{"source": "paper PMC11558128", "about": "(Advanced Science, 2024)", "key": {"hNav1.7": {"target": "T1, hNav1.7 (Homo sapiens, UniProt Q15858)", "T1 construct": "expressed in transfected cells; host or cells: HEK293T", "T1 sequence (O60939 30-215)": "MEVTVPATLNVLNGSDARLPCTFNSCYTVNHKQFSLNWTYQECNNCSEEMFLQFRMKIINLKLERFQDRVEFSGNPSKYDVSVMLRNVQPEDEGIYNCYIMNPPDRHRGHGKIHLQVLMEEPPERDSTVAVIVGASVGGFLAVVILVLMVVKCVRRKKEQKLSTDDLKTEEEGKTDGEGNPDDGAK", "T1 sequence (Q15858 other isoform, or with tags, fused parts or gaps)": "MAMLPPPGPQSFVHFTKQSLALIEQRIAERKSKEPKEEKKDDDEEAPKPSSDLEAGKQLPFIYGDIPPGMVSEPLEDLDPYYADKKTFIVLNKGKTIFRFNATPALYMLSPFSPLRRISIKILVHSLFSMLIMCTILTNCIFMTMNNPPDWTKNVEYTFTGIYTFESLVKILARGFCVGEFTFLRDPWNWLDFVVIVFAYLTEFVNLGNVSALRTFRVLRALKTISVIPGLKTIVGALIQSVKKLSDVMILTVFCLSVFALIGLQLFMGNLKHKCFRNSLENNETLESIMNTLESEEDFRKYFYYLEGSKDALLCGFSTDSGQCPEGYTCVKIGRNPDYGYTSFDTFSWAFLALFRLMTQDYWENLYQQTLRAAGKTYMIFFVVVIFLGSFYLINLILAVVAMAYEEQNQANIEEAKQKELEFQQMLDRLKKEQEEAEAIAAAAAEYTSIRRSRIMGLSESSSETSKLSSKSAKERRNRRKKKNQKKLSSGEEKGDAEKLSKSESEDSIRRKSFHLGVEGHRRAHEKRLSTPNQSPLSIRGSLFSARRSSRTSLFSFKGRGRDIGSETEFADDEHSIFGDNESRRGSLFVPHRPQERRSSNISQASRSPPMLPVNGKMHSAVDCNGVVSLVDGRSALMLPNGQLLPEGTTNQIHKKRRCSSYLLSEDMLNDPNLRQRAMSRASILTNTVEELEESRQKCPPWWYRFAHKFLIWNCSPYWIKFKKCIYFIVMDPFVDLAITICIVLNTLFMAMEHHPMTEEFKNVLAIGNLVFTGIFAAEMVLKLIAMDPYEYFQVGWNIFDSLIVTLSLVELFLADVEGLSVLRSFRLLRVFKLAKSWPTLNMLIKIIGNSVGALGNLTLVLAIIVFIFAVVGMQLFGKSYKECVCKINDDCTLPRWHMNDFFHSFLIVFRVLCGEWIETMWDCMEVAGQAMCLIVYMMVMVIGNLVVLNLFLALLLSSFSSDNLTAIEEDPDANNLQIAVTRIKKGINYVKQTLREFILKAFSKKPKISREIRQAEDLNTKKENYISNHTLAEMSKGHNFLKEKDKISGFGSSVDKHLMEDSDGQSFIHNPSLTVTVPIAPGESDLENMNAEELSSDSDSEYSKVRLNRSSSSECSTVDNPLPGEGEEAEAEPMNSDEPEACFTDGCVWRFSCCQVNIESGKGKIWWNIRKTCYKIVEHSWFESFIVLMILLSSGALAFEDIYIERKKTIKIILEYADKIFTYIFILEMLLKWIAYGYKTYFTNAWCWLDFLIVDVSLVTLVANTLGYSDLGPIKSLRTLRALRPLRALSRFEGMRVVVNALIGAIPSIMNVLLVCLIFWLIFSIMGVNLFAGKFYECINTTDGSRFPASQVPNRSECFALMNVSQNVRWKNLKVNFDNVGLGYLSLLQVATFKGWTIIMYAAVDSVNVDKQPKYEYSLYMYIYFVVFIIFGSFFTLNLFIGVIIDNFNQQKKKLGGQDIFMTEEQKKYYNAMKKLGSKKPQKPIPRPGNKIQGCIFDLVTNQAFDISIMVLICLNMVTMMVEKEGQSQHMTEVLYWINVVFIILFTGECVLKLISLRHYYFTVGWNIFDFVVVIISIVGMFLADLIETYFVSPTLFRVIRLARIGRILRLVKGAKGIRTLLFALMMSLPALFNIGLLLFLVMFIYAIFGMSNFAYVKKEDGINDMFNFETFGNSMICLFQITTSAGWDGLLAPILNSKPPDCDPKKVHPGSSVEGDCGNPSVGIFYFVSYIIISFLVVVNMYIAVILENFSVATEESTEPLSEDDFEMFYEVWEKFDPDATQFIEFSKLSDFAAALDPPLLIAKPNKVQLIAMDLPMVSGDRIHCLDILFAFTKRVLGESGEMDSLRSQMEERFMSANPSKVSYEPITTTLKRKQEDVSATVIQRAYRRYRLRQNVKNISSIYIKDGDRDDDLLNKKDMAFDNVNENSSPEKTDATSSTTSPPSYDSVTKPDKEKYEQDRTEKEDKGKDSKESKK", "T1 sequence (Q07699 19-218, further chain)": "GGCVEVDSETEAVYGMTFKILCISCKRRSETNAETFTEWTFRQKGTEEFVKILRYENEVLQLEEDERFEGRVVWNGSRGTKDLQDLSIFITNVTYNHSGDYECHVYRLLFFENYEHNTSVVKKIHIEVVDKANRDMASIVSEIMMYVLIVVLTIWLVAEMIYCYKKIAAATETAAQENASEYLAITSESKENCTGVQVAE", "assay": "cell-based", "conditions": "whole-cell patch clamp, HEK293T"}, "rKv4.2": {"target": "T2, rKv4.2 (Rattus norvegicus, UniProt Q63881)", "T2 construct": "expressed in transfected cells; host or cells: HEK293T", "T2 sequence (Q63881 1-630)": "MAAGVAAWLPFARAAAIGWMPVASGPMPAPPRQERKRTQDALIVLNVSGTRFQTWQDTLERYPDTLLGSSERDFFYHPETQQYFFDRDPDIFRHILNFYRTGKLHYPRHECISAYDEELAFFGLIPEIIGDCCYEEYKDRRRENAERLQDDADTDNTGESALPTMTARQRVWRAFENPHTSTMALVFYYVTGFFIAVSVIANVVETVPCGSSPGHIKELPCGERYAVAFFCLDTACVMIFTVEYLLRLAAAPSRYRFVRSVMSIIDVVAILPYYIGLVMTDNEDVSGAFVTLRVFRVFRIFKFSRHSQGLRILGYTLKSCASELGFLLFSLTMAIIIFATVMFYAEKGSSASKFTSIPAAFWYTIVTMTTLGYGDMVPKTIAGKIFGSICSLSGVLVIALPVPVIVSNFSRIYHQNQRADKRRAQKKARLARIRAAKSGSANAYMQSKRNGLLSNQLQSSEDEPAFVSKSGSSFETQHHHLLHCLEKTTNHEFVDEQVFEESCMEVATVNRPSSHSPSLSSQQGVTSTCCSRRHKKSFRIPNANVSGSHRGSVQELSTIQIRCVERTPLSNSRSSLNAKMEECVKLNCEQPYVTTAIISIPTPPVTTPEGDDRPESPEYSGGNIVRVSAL", "assay": "cell-based", "conditions": "for IC50: whole-cell patch clamp, HEK293T, n = 3-8"}, "[1]": {"conditions": "mean ± SEM, this study, SEM, read-out: IC50 on hNav1.7"}, "[2]": {"conditions": "mean ± SEM, SEM, read-out: IC50 on rKv4.2 WT"}}, "note": "Like-named read-outs stand apart in the source and are kept apart here. Positions of bridges follow the written chain, without caps; N, C: chain ends. Residues, ends and D or L forms follow the SMILES beside them."}
{"smiles": "CC(C)C[C@H](NC(=O)[C@H](Cc1ccc(O)cc1)NC(=O)[C@@H](NC(=O)[C@H](CCCCN)NC(=O)[C@@H]1CSSC[C@@H]2NC(=O)[C@H](CCC(=O)O)NC(=O)[C@H](CC(N)=O)NC(=O)[C@H](CCCCN)NC(=O)CNC(=O)[C@@H]3CCCN3C(=O)[C@H]([C@@H](C)O)NC(=O)[C@@H]3CSSC[C@H](NC(=O)[C@H](C)NC(=O)[C@H](C)NC(=O)[C@H](CC(N)=O)NC(=O)[C@@H]4CCCN4C(=O)[C@H](CSSC[C@H](NC(=O)CN)C(=O)N[C@@H](CCCCN)C(=O)NCC(=O)N[C@@H](Cc4ccccc4)C(=O)NCC(=O)N[C@@H](CC(=O)O)C(=O)N[C@@H](CO)C(=O)N3)NC2=O)C(=O)N[C@@H](CO)C(=O)N[C@@H](CO)C(=O)N[C@@H](CCCCN)C(=O)N[C@@H](Cc2c[nH]cn2)C(=O)N[C@@H](CCCCN)C(=O)N[C@@H](Cc2c[nH]c3ccccc23)C(=O)N1)C(C)C)C(N)=O", "note": "[Y20A] (H-GCKGFGDSCTPGKNECCPNAACSSKHKWCKVYL-NH2; disulfide 2-17, 9-22, 16-29)", "values": [{"measurement": "IC50", "setting": "hNav1.7; [1]", "value": "7.16 ± 0.528", "unit": "µM"}, {"measurement": "IC50", "setting": "rKv4.2; [2]", "value": "4 ± 2", "unit": "µM"}]}
{"smiles": "CC(C)[C@H](NC(=O)[C@H](CCCCN)NC(=O)[C@@H]1CSSC[C@@H]2NC(=O)[C@H](CCC(=O)O)NC(=O)[C@H](CC(N)=O)NC(=O)[C@H](CCCCN)NC(=O)CNC(=O)[C@@H]3CCCN3C(=O)[C@H]([C@@H](C)O)NC(=O)[C@@H]3CSSC[C@H](NC(=O)[C@H](C)NC(=O)[C@H](Cc4ccc(O)cc4)NC(=O)[C@H](CC(N)=O)NC(=O)[C@@H]4CCCN4C(=O)[C@H](CSSC[C@H](NC(=O)CN)C(=O)N[C@@H](CCCCN)C(=O)NCC(=O)N[C@@H](Cc4ccccc4)C(=O)NCC(=O)N[C@@H](CC(=O)O)C(=O)N[C@@H](CO)C(=O)N3)NC2=O)C(=O)N[C@@H](CO)C(=O)N[C@@H](CO)C(=O)N[C@@H](CCCCN)C(=O)N[C@@H](Cc2c[nH]cn2)C(=O)N[C@@H](CCCCN)C(=O)N[C@@H](Cc2c[nH]c3ccccc23)C(=O)N1)C(=O)N[C@@H](Cc1ccc(O)cc1)C(=O)N[C@@H](CCCCN)C(N)=O", "note": "[L33K] (H-GCKGFGDSCTPGKNECCPNYACSSKHKWCKVYK-NH2; disulfide 2-17, 9-22, 16-29)", "values": [{"measurement": "IC50", "setting": "hNav1.7; mean ± SEM, this study, read-out: IC50 on hNav1.7", "value": "> 10", "unit": "µM"}, {"measurement": "IC50", "setting": "rKv4.2; [2]", "value": "20 ± 4", "unit": "µM"}]}
{"smiles": "CC(C)C[C@H](NC(=O)[C@H](Cc1ccc(O)cc1)NC(=O)[C@@H](NC(=O)[C@H](CCCCN)NC(=O)[C@@H]1CSSC[C@@H]2NC(=O)[C@H](CCC(=O)O)NC(=O)[C@H](CC(N)=O)NC(=O)[C@H](CCCCN)NC(=O)CNC(=O)[C@@H]3CCCN3C(=O)[C@H]([C@@H](C)O)NC(=O)[C@@H]3CSSC[C@H](NC(=O)[C@H](C)NC(=O)[C@H](Cc4ccc(O)cc4)NC(=O)[C@H](CC(N)=O)NC(=O)[C@H](CCCCN)NC(=O)[C@H](CSSC[C@H](NC(=O)CN)C(=O)N[C@@H](CCCCN)C(=O)NCC(=O)N[C@@H](Cc4ccccc4)C(=O)NCC(=O)N[C@@H](CC(=O)O)C(=O)N[C@@H](CO)C(=O)N3)NC2=O)C(=O)N[C@@H](CO)C(=O)N[C@@H](CO)C(=O)N[C@@H](CCCCN)C(=O)N[C@@H](Cc2c[nH]cn2)C(=O)N[C@@H](CCCCN)C(=O)N[C@@H](Cc2c[nH]c3ccccc23)C(=O)N1)C(C)C)C(N)=O", "note": "[P18K] (H-GCKGFGDSCTPGKNECCKNYACSSKHKWCKVYL-NH2; disulfide 2-17, 9-22, 16-29)", "values": [{"measurement": "IC50", "setting": "rKv4.2; [2]", "value": "0.167 ± 0.117", "unit": "µM"}]}
{"smiles": "CC[C@H](C)[C@@H]1NC(=O)[C@@H]2CSSC[C@@H]3NC(=O)[C@H](C(C)C)NC(=O)[C@H](CC(C)C)NC(=O)[C@H](CC(N)=O)NC(=O)[C@@H]4CCCN4C(=O)[C@H](CCCNC(=N)N)NC(=O)[C@H](CSSC[C@H](NC(=O)[C@@H](N)CC(=O)O)C(=O)N[C@@H](CC(C)C)C(=O)NCC(=O)N[C@@H](C)C(=O)N[C@@H](Cc4ccccc4)C(=O)N[C@@H](CCCNC(=N)N)C(=O)N[C@@H](CCCCN)C(=O)N2)NC(=O)[C@H](CSSC[C@@H](C(=O)N[C@@H](CCCCN)C(=O)N[C@@H](Cc2ccc(O)cc2)C(=O)N[C@H](C(=O)N[C@@H](Cc2ccccc2)C(N)=O)C(C)C)NC(=O)[C@H](Cc2c[nH]c4ccccc24)NC(=O)[C@H](CCCNC(=N)N)NC(=O)[C@H](Cc2c[nH]cn2)NC(=O)[C@H](CC(C)C)NC(=O)[C@H](C)NC(=O)[C@H](CO)NC3=O)NC(=O)[C@H](CCCCN)NC(=O)[C@H](CC(=O)O)NC(=O)[C@H](CC(N)=O)NC(=O)[C@H](CC(=O)O)NC(=O)[C@@H]2CCCN2C1=O", "note": "[mGpTx1-R25A] (H-DCLGAFRKCIPDNDKCCRPNLVCSALHRWCKYVF-NH2; disulfide 2-17, 9-23, 16-30)", "values": [{"measurement": "IC50", "setting": "hNav1.7; hNav1.7 with β1 and β2, held at -90 mV, step to 0 mV, mean ± S.E.M., n = 3-7, SEM, read-out: IC50 for hNav1.7", "value": "0.0013 ± 0.0001", "unit": "µM"}, {"measurement": "IC50", "setting": "rKv4.2; held at -80 mV, step to 0 mV, mean ± S.E.M., SEM, read-out: IC50 for rKv4.2", "value": "0.0572 ± 0.0062", "unit": "µM"}]}
{"smiles": "CC(C)C[C@@H]1NC(=O)[C@H](Cc2ccc(O)cc2)NC(=O)[C@H](CC(N)=O)NC(=O)[C@H](CCCCN)NC(=O)[C@@H]2CSSC[C@H](NC(=O)CNC(=O)[C@@H](N)CCCCN)C(=O)N[C@@H](CCCCN)C(=O)NCC(=O)N[C@@H](Cc3ccccc3)C(=O)NCC(=O)N[C@@H](CC(=O)O)C(=O)N[C@@H](CO)C(=O)N[C@H]3CSSC[C@H](NC1=O)C(=O)N[C@@H](CO)C(=O)N[C@@H](CO)C(=O)N[C@@H](C)C(=O)N[C@@H](Cc1c[nH]cn1)C(=O)N[C@@H](CCCCN)C(=O)N[C@@H](Cc1c[nH]c4ccccc14)C(=O)N[C@H](C(=O)N[C@@H](CCCCN)C(=O)N[C@H](C(=O)N[C@@H](Cc1ccc(O)cc1)C(=O)N[C@@H](CC(C)C)C(=O)N[C@H](C(N)=O)C(C)C)C(C)C)CSSC[C@H](NC(=O)[C@H](CCC(=O)O)NC(=O)[C@H](CC(N)=O)NC(=O)[C@H](CCCCN)NC(=O)CNC(=O)[C@@H]1CCCN1C(=O)[C@H]([C@@H](C)O)NC3=O)C(=O)N2", "note": "[HNTX-III-H4-K25A] (H-KGCKGFGDSCTPGKNECCKNYLCSSAHKWCKVYLV-NH2; disulfide 3-18, 10-23, 17-30; N-terminus and C-terminus assumed)", "values": [{"measurement": "inhibition of rKv4.2, in words", "setting": "rKv4.2; analogue compared with its parent toxin", "value": "disappeared"}]}
{"smiles": "CC(C)C[C@H](NC(=O)[C@H](Cc1ccc(O)cc1)NC(=O)[C@@H](NC(=O)[C@H](CCCCN)NC(=O)[C@@H]1CSSC[C@@H]2NC(=O)[C@H](CCC(=O)O)NC(=O)[C@H](CC(N)=O)NC(=O)[C@H](CCCCN)NC(=O)CNC(=O)[C@@H]3CCCN3C(=O)[C@H]([C@@H](C)O)NC(=O)[C@@H]3CSSC[C@H](NC(=O)[C@H](C)NC(=O)[C@H](Cc4ccc(O)cc4)NC(=O)[C@H](CC(N)=O)NC(=O)[C@@H]4CCCN4C(=O)[C@H](CSSC[C@H](NC(=O)CN)C(=O)N[C@@H](CCCCN)C(=O)NCC(=O)N[C@@H](Cc4ccccc4)C(=O)NCC(=O)N[C@@H](CC(=O)O)C(=O)N[C@@H](CO)C(=O)N3)NC2=O)C(=O)N[C@@H](CO)C(=O)N[C@@H](CO)C(=O)N[C@@H](C)C(=O)N[C@@H](Cc2c[nH]cn2)C(=O)N[C@@H](CCCCN)C(=O)N[C@@H](Cc2c[nH]c3ccccc23)C(=O)N1)C(C)C)C(N)=O", "note": "[K25A] (H-GCKGFGDSCTPGKNECCPNYACSSAHKWCKVYL-NH2; disulfide 2-17, 9-22, 16-29)", "values": [{"measurement": "IC50", "setting": "hNav1.7; [1]", "value": "2 ± 0.332", "unit": "µM"}, {"measurement": "IC50", "setting": "rKv4.2; mean ± SEM, read-out: IC50 on rKv4.2 WT", "value": "> 20", "unit": "µM"}]}
{"smiles": "CC(C)C[C@H](NC(=O)[C@H](Cc1ccc(O)cc1)NC(=O)[C@@H](NC(=O)[C@H](CCCCN)NC(=O)[C@@H]1CSSC[C@@H]2NC(=O)[C@H](CCC(=O)O)NC(=O)[C@H](CC(N)=O)NC(=O)[C@H](CCCCN)NC(=O)CNC(=O)[C@@H]3CCCN3C(=O)[C@H]([C@@H](C)O)NC(=O)[C@@H]3CSSC[C@H](NC(=O)[C@H](CC(C)C)NC(=O)[C@H](Cc4ccc(O)cc4)NC(=O)[C@H](CC(N)=O)NC(=O)[C@@H]4CCCN4C(=O)[C@H](CSSC[C@H](NC(=O)CN)C(=O)N[C@@H](CCCCN)C(=O)NCC(=O)N[C@@H](Cc4ccccc4)C(=O)NCC(=O)N[C@@H](CC(=O)O)C(=O)N[C@@H](CO)C(=O)N3)NC2=O)C(=O)N[C@@H](CO)C(=O)N[C@@H](CO)C(=O)N[C@@H](CCCCN)C(=O)N[C@@H](Cc2c[nH]cn2)C(=O)N[C@@H](CCCCN)C(=O)N[C@@H](Cc2c[nH]c3ccccc23)C(=O)N1)C(C)C)C(N)=O", "note": "[A21L] (H-GCKGFGDSCTPGKNECCPNYLCSSKHKWCKVYL-NH2; disulfide 2-17, 9-22, 16-29)", "values": [{"measurement": "IC50", "setting": "rKv4.2; [2]", "value": "0.06 ± 0.01", "unit": "µM"}]}
{"smiles": "CC(C)C[C@H](NC(=O)[C@H](Cc1ccc(O)cc1)NC(=O)[C@@H](NC(=O)[C@H](CCCCN)NC(=O)[C@@H]1CSSC[C@@H]2NC(=O)[C@H](CCC(=O)O)NC(=O)[C@H](CC(N)=O)NC(=O)[C@H](CCCCN)NC(=O)CNC(=O)[C@@H]3CCCN3C(=O)[C@H]([C@@H](C)O)NC(=O)[C@@H]3CSSC[C@H](NC(=O)[C@H](C)NC(=O)[C@H](Cc4ccc(O)cc4)NC(=O)[C@H](CC(N)=O)NC(=O)[C@@H]4CCCN4C(=O)[C@H](CSSC[C@H](NC(=O)CN)C(=O)N[C@@H](CCCCN)C(=O)NCC(=O)N[C@@H](Cc4c[nH]c5ccccc45)C(=O)NCC(=O)N[C@@H](CC(=O)O)C(=O)N[C@@H](CO)C(=O)N3)NC2=O)C(=O)N[C@@H](CO)C(=O)N[C@@H](CO)C(=O)N[C@@H](CCCCN)C(=O)N[C@@H](Cc2c[nH]cn2)C(=O)N[C@@H](CCCCN)C(=O)N[C@@H](Cc2c[nH]c3ccccc23)C(=O)N1)C(C)C)C(N)=O", "note": "[F5W] (H-GCKGWGDSCTPGKNECCPNYACSSKHKWCKVYL-NH2; disulfide 2-17, 9-22, 16-29)", "values": [{"measurement": "IC50", "setting": "rKv4.2; [2]", "value": "0.833 ± 0.081", "unit": "µM"}]}
